{"source": "patent US20220040144A1", "about": "“COMPOSITIONS AND METHODS FOR THE TREATMENT OF CUTANEOUS T CELL LYMPHOMA (CTCL)” (The State of Israel, Ministry of Agriculture & Rural …, priority 2018, published 2022)", "key": {"HUT78 cells": {"system": "HUT78 cells", "experiment": "XTT cell viability assay on HUT78 cells", "format": "cell-based, human", "conditions": "CBD only, concentration equal to that in combined S4+S5 (7.3 μg/ml), 48 hours", "method": "(§1) XTT Cell Viability Assays—Cells were seeded in 96-wells plates at 10,000 cells per well in triplicates in DMEM or RPMI640 growing media. The following day, cells were treated with the different extracts, separated fractions and combinations thereof or pure compounds; or media or solvent only as control. To evaluate involvement of the CB1 and CB2 receptors, 10 μM of AM251 (a CB1 receptor inverse agonist, TOCRIS, 1117/1) or SR144528 (a CB2 receptor inverse agonist, Abcam) were added to the cells 1 hour prior to treatment. Cells were incubated for 48 hours and following XTT (2,3-bis(2-methoxy-4-nitro-5-sulfophenyl)-5-[(phenylamino)-carbonyl]-2H-tetrazolium inner salt) reduction was used to quantify viability according to manufacturer's instruction (BI, Kibbutz Beit-Haemek, Israel). Briefly, cells were incubated with XTT reagent for 2 hours at 37° C. in a humidified 5% CO2, 95% air atmosphere. Absorbance was recorded by a photometer Synergy H1 hybrid reader (BioTek) at 490 nm with 650 nm of reference wavelength. Cells survival was estimated according to the following equation: % cell survival=100×(At−Ac)(treatment)/(At−Ac)(control), where At and Ac are the absorbencies (490 nm) of the XTT colorimetric reaction in treated and control cultures, respectively, minus non-specific absorption measured at 650 nm. Absorbance of medium alone was also deducted from specific readings. […]"}, "MyLa cells": {"system": "MyLa cells", "experiment": "XTT cell viability assay on MyLa cells, with Bliss synergy analysis", "conditions": "CBD 7.3 μg/ml, CBG 3.5 μg/ml, THC 0.044 μg/ml, CBC 0.027 μg/ml (as in S4 5 + S5 6 μg/mL), 48 hours", "method": "as §1"}}, "data": [{"smiles": "C=C(C)[C@@H]1CCC(C)=C[C@H]1c1c(O)cc(CCCCC)cc1O", "note": "[CBD, cannabidiol]", "values": [{"measurement": "cell death of HuT-78 cells", "setting": "HUT78 cells", "result": 50, "unit": "%"}, {"measurement": "cytotoxicity of pure cannabinoids on My-La cells (in words)", "setting": "MyLa cells", "result": "did not induce cell death"}]}]}
